# Measured values as given in PubChem BioAssay (NCI).
#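 The compound was tested at five concentrations on cells cultured in 96-well plates, with a 48-hour exposure period. The concentration for 50% growth inhibition is given as GI50. Definition used: TGI = concentration required for complete inhibition of growth.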
# What was measured:
# Assay in all cases: DTP human tumour cell line panel, 48 h
# MDA-MB-468 breast = tested on: MDA-MB-468 breast
# SN12C renal = tested on: SN12C renal
# MOLT-4 leukemia = tested on: MOLT-4 leukemia
# SK-MEL-2 melanoma = tested on: SK-MEL-2 melanoma
# OVCAR-5 ovarian = tested on: OVCAR-5 ovarian
# MALME-3M melanoma = tested on: MALME-3M melanoma
# IGROV1 ovarian = tested on: IGROV1 ovarian
# UO-31 renal = tested on: UO-31 renal
# HS 578T breast = tested on: HS 578T breast
# SK-MEL-5 melanoma = tested on: SK-MEL-5 melanoma
# HCT-15 colon = tested on: HCT-15 colon
# UACC-257 melanoma = tested on: UACC-257 melanoma
# SK-MEL-28 melanoma = tested on: SK-MEL-28 melanoma
# OVCAR-3 ovarian = tested on: OVCAR-3 ovarian
# MDA-MB-231 breast = tested on: MDA-MB-231 breast
# A549 NSCLC = tested on: A549 NSCLC
# BT-549 breast = tested on: BT-549 breast
# K-562 leukemia = tested on: K-562 leukemia
# HCC-2998 colon = tested on: HCC-2998 colon
# UACC-62 melanoma = tested on: UACC-62 melanoma
# A498 renal = tested on: A498 renal
# SF-539 CNS = tested on: SF-539 CNS
# MDA-MB-435 = tested on: MDA-MB-435
# LOX IMVI melanoma = tested on: LOX IMVI melanoma
# HL-60(TB) leukemia = tested on: HL-60(TB) leukemia
# NCI-H460 lung = tested on: NCI-H460 lung
# SNB-75 CNS = tested on: SNB-75 CNS
# TK-10 renal = tested on: TK-10 renal
# SK-OV-3 ovarian = tested on: SK-OV-3 ovarian
# CCRF-CEM leukemia = tested on: CCRF-CEM leukemia
# SF-295 CNS = tested on: SF-295 CNS
# MCF7 breast = tested on: MCF7 breast
# COLO 205 colon = tested on: COLO 205 colon
# SNB-19 CNS = tested on: SNB-19 CNS
# SR leukemia = tested on: SR leukemia
# OVCAR-4 ovarian = tested on: OVCAR-4 ovarian
# HCT-116 colon = tested on: HCT-116 colon
# 786-0 renal = tested on: 786-0 renal
# NCI-H23 lung = tested on: NCI-H23 lung
# OVCAR-8 ovarian = tested on: OVCAR-8 ovarian
# HOP-62 NSCLC = tested on: HOP-62 NSCLC
# ACHN renal = tested on: ACHN renal
# SF-268 CNS = tested on: SF-268 CNS
# RXF 393 renal = tested on: RXF 393 renal
# HOP-92 NSCLC = tested on: HOP-92 NSCLC
# T-47D breast = tested on: T-47D breast
# M14 melanoma = tested on: M14 melanoma
# KM12 colon = tested on: KM12 colon
# HT29 colon = tested on: HT29 colon
# U251 CNS = tested on: U251 CNS
# NCI-H522 lung = tested on: NCI-H522 lung
# CAKI-1 renal = tested on: CAKI-1 renal
# DU-145 prostate = tested on: DU-145 prostate
# NCI-H226 lung = tested on: NCI-H226 lung
# EKVX NSCLC = tested on: EKVX NSCLC
# PC-3 prostate = tested on: PC-3 prostate
# SW-620 colon = tested on: SW-620 colon
# RPMI-8226 leukemia = tested on: RPMI-8226 leukemia
smiles,measurement,setting,value
COc1cc(NC(=O)Nc2cnc(Nc3ccc(N4CCOCC4)cc3)nc2Oc2cccc(OC)c2)cc(OC)c1,GI50,MDA-MB-468 breast,1.74 µM
same,TGI,MDA-MB-468 breast,9.54 µM
C[C@@H](Nc1c(C#N)cnc2ccc(-c3cnc(N)nc3)cc12)c1ccccc1,GI50,MDA-MB-468 breast,0.722 µM
same,TGI,MDA-MB-468 breast,5.8 µM
COc1cccc(-c2c(C#N)c(-c3ccc(Cl)cc3)nc3n[nH]c(-c4ccc(Cl)cc4)c23)c1,GI50,SN12C renal,12 µM
same,TGI,SN12C renal,> 100 µM
same,GI50,MOLT-4 leukemia,3.45 µM
same,TGI,MOLT-4 leukemia,49.2 µM
same,GI50,SK-MEL-2 melanoma,13.9 µM
same,TGI,SK-MEL-2 melanoma,30.1 µM
same,GI50,OVCAR-5 ovarian,11.2 µM
same,TGI,OVCAR-5 ovarian,50.8 µM
same,GI50,MALME-3M melanoma,11.5 µM
same,TGI,MALME-3M melanoma,31.7 µM
same,GI50,IGROV1 ovarian,16 µM
same,TGI,IGROV1 ovarian,68 µM
same,GI50,UO-31 renal,2.38 µM
same,TGI,UO-31 renal,72.7 µM
same,GI50,HS 578T breast,11.1 µM
same,TGI,HS 578T breast,89.6 µM
same,GI50,SK-MEL-5 melanoma,12.4 µM
same,TGI,SK-MEL-5 melanoma,26.3 µM
same,GI50,HCT-15 colon,4.16 µM
same,TGI,HCT-15 colon,27.8 µM
same,GI50,UACC-257 melanoma,22.7 µM
same,TGI,UACC-257 melanoma,93.3 µM
same,GI50,SK-MEL-28 melanoma,17.8 µM
same,TGI,SK-MEL-28 melanoma,74.8 µM
same,GI50,OVCAR-3 ovarian,9.27 µM
same,TGI,OVCAR-3 ovarian,80 µM
same,GI50,MDA-MB-231 breast,12.8 µM
same,TGI,MDA-MB-231 breast,35.1 µM
same,GI50,A549 NSCLC,15.1 µM
same,TGI,A549 NSCLC,> 100 µM
same,GI50,BT-549 breast,6.07 µM
same,TGI,BT-549 breast,27.4 µM
same,GI50,K-562 leukemia,4.01 µM
same,TGI,K-562 leukemia,78.6 µM
same,GI50,HCC-2998 colon,6.14 µM
same,TGI,HCC-2998 colon,31 µM
same,GI50,UACC-62 melanoma,12.6 µM
same,TGI,UACC-62 melanoma,29.1 µM
same,GI50,A498 renal,33.3 µM
same,TGI,A498 renal,> 100 µM
same,GI50,SF-539 CNS,8.28 µM
same,TGI,SF-539 CNS,25.9 µM
same,GI50,MDA-MB-435,13.4 µM
same,TGI,MDA-MB-435,37.2 µM
same,GI50,LOX IMVI melanoma,10.6 µM
same,TGI,LOX IMVI melanoma,28.9 µM
same,GI50,HL-60(TB) leukemia,4.77 µM
same,TGI,HL-60(TB) leukemia,43.5 µM
same,GI50,NCI-H460 lung,13.5 µM
same,TGI,NCI-H460 lung,46.7 µM
same,GI50,SNB-75 CNS,12.7 µM
same,TGI,SNB-75 CNS,64.3 µM
same,GI50,TK-10 renal,38 µM
same,TGI,TK-10 renal,> 100 µM
same,GI50,SK-OV-3 ovarian,18.1 µM
same,TGI,SK-OV-3 ovarian,98.7 µM
same,GI50,CCRF-CEM leukemia,6.56 µM
same,TGI,CCRF-CEM leukemia,> 100 µM
same,GI50,SF-295 CNS,12.1 µM
same,TGI,SF-295 CNS,33 µM
same,GI50,MCF7 breast,6 µM
same,TGI,MCF7 breast,> 100 µM
same,GI50,COLO 205 colon,11.3 µM
same,TGI,COLO 205 colon,25.2 µM
same,GI50,SNB-19 CNS,20 µM
same,TGI,SNB-19 CNS,> 100 µM
same,GI50,SR leukemia,7.09 µM
same,TGI,SR leukemia,50.3 µM
same,GI50,OVCAR-4 ovarian,4.96 µM
same,TGI,OVCAR-4 ovarian,86.4 µM
same,GI50,HCT-116 colon,4.66 µM
same,TGI,HCT-116 colon,26.2 µM
same,GI50,786-0 renal,11.2 µM
same,TGI,786-0 renal,> 100 µM
same,GI50,NCI-H23 lung,13.6 µM
same,TGI,NCI-H23 lung,> 100 µM
same,GI50,OVCAR-8 ovarian,20.9 µM
same,TGI,OVCAR-8 ovarian,> 100 µM
same,GI50,HOP-62 NSCLC,16.4 µM
same,TGI,HOP-62 NSCLC,80.6 µM
same,GI50,ACHN renal,13.6 µM
same,TGI,ACHN renal,> 100 µM
same,GI50,SF-268 CNS,14.8 µM
same,TGI,SF-268 CNS,> 100 µM
same,GI50,RXF 393 renal,11.5 µM
same,TGI,RXF 393 renal,79.3 µM
same,GI50,HOP-92 NSCLC,2.35 µM
same,TGI,HOP-92 NSCLC,9.24 µM
same,GI50,MDA-MB-468 breast,19.1 µM
same,TGI,MDA-MB-468 breast,> 100 µM
same,GI50,T-47D breast,3.42 µM
same,TGI,T-47D breast,77.8 µM
same,GI50,M14 melanoma,9.82 µM
same,TGI,M14 melanoma,34.1 µM
same,GI50,KM12 colon,8.81 µM
same,TGI,KM12 colon,> 100 µM
same,GI50,HT29 colon,9.76 µM
same,TGI,HT29 colon,29.8 µM
same,GI50,U251 CNS,13.6 µM
same,TGI,U251 CNS,> 100 µM
same,GI50,NCI-H522 lung,16.1 µM
same,TGI,NCI-H522 lung,92.7 µM
same,GI50,CAKI-1 renal,7.91 µM
same,TGI,CAKI-1 renal,32.9 µM
same,GI50,DU-145 prostate,21 µM
same,TGI,DU-145 prostate,> 100 µM
same,GI50,NCI-H226 lung,11.9 µM
same,TGI,NCI-H226 lung,49.1 µM
same,GI50,EKVX NSCLC,11.8 µM
same,TGI,EKVX NSCLC,> 100 µM
same,GI50,PC-3 prostate,3.19 µM
same,TGI,PC-3 prostate,> 100 µM
same,GI50,SW-620 colon,21.2 µM
same,TGI,SW-620 colon,> 100 µM
same,GI50,RPMI-8226 leukemia,4.44 µM
same,TGI,RPMI-8226 leukemia,> 100 µM
